In patent publication US20040116346A1, “Affinity small molecules for the EPO receptor” (priority 2002, published 2004):

System: carboplatin-treated 8 week old C57BL mice
Experiment: Carboplatin induced anemia model (hematocrit)
Format: in vivo, mouse
Details: mouse, in vivo
Procedure: Mice were treated with Carboplatin agent (available from Sigma, used regularly in chemotherapy) and a drop in hematocrit was induced. […] (FIGS. 9-11)
Determination of Effect of Non-peptide EPO-R Binding Small Molecule on Hematocrit in Carboplatin-Induced Anemia in 8 Week C57BI Male Mice
Preparation of injection solutions: Vehicle—Saline with 0.1 mg/mL BSA; Add 30 mg of BSA to 300 mL Saline; Vacuum filter under sterile conditions in laminar flow hood; Aliquot the saline (0.1 mg/mL BSA) solution into mini-sorp tubes. At least 41×7 mL aliquots should be prepared. Place caps on the tubes and store refrigerated at 4° C.;
Carboplatin—Dose of 120 mg/kg: Calculations for single injection given to 36 male mice (8 wks old˜25 g): […]×0.025 kg×36 mice=108 mg; Injections are delivered i.p. in a volume of 0.5 cc/mouse=0.5 cc/mouse×36 mice=18 cc; Carboplatin at 6 mg/mL for 36 mice: 108 mg/18 cc.; 120 mg/20 cc; On day of injection, add 120 mg carboplatin (Sigma #C2538) to 20 cc saline in a 100 cc beaker containing a stirring bar. Cover beaker with parafilm. Mix until the carboplatin has completely dissolved.
11 nmole/kg/mouse/day×0.025 kg×12 mice=3.3 nmoles/day; Injections are delivered i.p. in a volume of 0.5 cc/mouse/day=0.5 cc/mouse/day×12 mice=6 cc/day; non-peptide EPO-R binding small molecule for […]: 3.3 nmoles/6 cc each day: 3.85 nmole/7 cc each day; non-peptide EPO-R binding small molecule aliquot at 2 mM=2 nmole/uL; 3.85 nmole per day in 7 cc (0.55 nmole/mL); Therefore: 3.85 nmole divided by 2 nmole/uL stock=1.925 uL at 2 mM; Prepare in advance at least 10 aliquots of non-peptide EPO-R binding small molecule at 2 mM in small microfuge tubes, each with a volume of 2 uL. Freeze these aliquots; On each day of injections, add 1 thawed aliquot of the non-peptide EPO-R binding small molecule at 2 mM containing a 2 uL volume to a tube containing 7 cc of sterile saline (0.1 mg/mL BSA). […]

Cc1ccc(Cl)cc1Nc1nc2nc(C)c(NCC3CC3)cn2n1 [Compound E5]
hematocrit levels in animals treated with carboplatin: restore hematocrit levels
